“Also recorded” adds a separate entry of the source.
Experiments:
[1] = tested on: M2R mouse melanoma cells; assay: Photodynamic toxicity to melanoma cell monolayer: morphology and Propidium Iodide staining; assay type: cell-based; conditions: 4×10^−6M pigment, 10 min irradiation at 670 nm (light source A), examined 3 h later
Experimental: The photodynamic effect of Chlidea and Chla-L-Ser-OMe conjugate on melanoma cells in culture was tested as follows: M2R mouse melanoma cells as monolayers (to 100% confluence) were treated with the pigments Chla, Chlidea and Chla-L-Ser-OMe for 30 minutes. Subsequently the cultures were irradiated for 10 minutes from the top with a 5mW GaAs diode laser at 670 nm (light source A), a 150W Xenon lamp at 5000 μEinstein/cm^2 (light source B), or a 90W halogen lamp at 1500 μEinstein (light source C). The control groups included untreated cells, pigment- treated cells that were kept in the dark and irradiated untreated cells. Three hours after irradiation, the changes in cell morphology due to irradiation were examined by phase contrast microscopy.
Evaluation of the cytolytic activity of the various Chl and Bchl derivatives was carried out by assessing cell death in the photodynamically treated area of the monolayer by staining of the cells with, and monitoring the red fluorescence of, Propidium Iodide ([2,7-diamino-9-phenyl-10-(diethylamino-propyl)-phenathridinium iodide meth-iodide]) (PID) which is excluded from intact/live cells and selectively accumulates in nuclei of damaged cells. Examination of fluorescing nuclei in the stained culture was done by fluorescence microscopy (Yeh, 1981). […]

[2] = tested on: M2R cells; assay type: cell-based, mouse
Experimental: Alternatively, photodynamic toxicity was determined by [^3H] thymidine incorporation. In this case, changes in rates of [^3H] thymidine incorporation following PDT were performed as follows: Cell cultures (4-5×10^4 cells/well in about 40-50% confluency grown in 10% fetal bovine serum) were pulsed with 1μ Ci/ml thymidine [methyl-^3H] for 2 h at 37° C. Cultures were then washed twice with cold phosphate-buffered saline (PBS), treated with 7.5% ice cold trichloroacetic acid (TCA) for 30 min at 4° C., washed 2 times with ethanol. Cells were then dissolved in 0.3 ml of 1 M NaOH at 37° C. for 15 min. Samples of 100 μl were neutralized with 100 μl of 1N HCI and 4 ml of 0.1 M imidazole and counted in a 20:8 (vol/vol) xylene scintillator/Lumax mixture. […] Results are given as means±SD of triplicate determinations.

[3] = tested on: S. Aureus; assay type: cell-based, Staphylococcus Aureus
Experimental: 1. Preincubation: Bacteria or viruses were preincubated in the absence (untreated control) or presence of increasing concentration of photosensitizer for 1-2 h at room temperature or 37° C. in the dark.
2. Illumination: One set of untreated control and one set of sensitizer treated samples were exposed to light for 5-10 min. An identical group was kept in the dark (dark control).
3. Viability: samples of the controls and experimental groups were subjected for quantitation of survival and viability was calculated as per cent of untreated control.
The light source for illumination was a 250W halogen lamp. The light was focused on a glass support and filtered to eliminate light below 630 nm. The light intensity at the target level was 1500 μEinstein/cm^2. Illumination for Bchl-Ser against S. aureus was performed as described Example 17 herein.
Stocks of bacteria (S. aureus, B. subtilis, E. coli) were preserved on solid LB agar slants at 4° C. Two hours prior to the experiment, bacteria were transferred to liquid LB media and grown at 37° C. with continuous shaking. P. Acnes (ATCC-CR 6919) bacteria were grown on agar 1053 reinforced clostridial medium (Oxoid CM 149 ) and incubated at 37° C. […]
Aliquots (20 or 30 μl) of bacterial suspensions were plated on LB agar plates for 24 h at 37° C. […] Colonies were counted and per cent viability was calculated from untreated control. […]

[4] = tested on: M2R melanoma cells; assay: PDT effect by clonogenic assay; assay type: cell-based, mouse
Experimental: The PDT effect was also determined by the clonogenic assay: 24 h after treatment of cells with various Chla-L-Ser-OMe concentrations and completion of the irradiation step, as described above (FIG. 12A), cultures were trypsinized and viable cell numbers determined by trypan blue exclusion. Appropriate dilutions were carried out and 250 cells/well were seeded into 6-well Costar plates. After 11-12 days in culture, the medium was aspirated and the colonies were fixed and stained with crystal violet in methanol and the number of colonies (more than 40 cells per colony) was counted under a dissecting microscope. […] Results are given as means±SD of triplicate determinations.

**Q.** Which results are given for `C=Cc1c(C)c2cc3nc(c4c5[n-]c(cc6nc(cc1[n-]2)C(C)=C6CC)c(C)c5C(=O)[C@@H]4C(=O)OC)[C@@H](CCC(=O)OC[C@H](N)C(=O)OC)[C@@H]3C.[Mg+2]` [Chla-L-Ser-OMe, L-seryl Methyl Ester Chlorophyllidea]?
**A.** cell damage: morphology and PID labeling after irradiation [1]: cell damage was confined to the photodynamically treated area; also recorded: all the remaining damaged cells in area (A) became PID labeled; [3H] thymidine incorporation without irradiation [2]: not observed in the dark controls; [3H] thymidine incorporation after PDT ([2]; 60 min with increasing concentrations, light source B, 24 h later): dose dependent reduction in the ability of the cells to incorporate [^3H] thymidine; effect in dark [3]: neither light alone nor Chl-Ser in dark showed any effect; number of surviving cells (colonies) without irradiation ([4]; dark): not in the dark; number of surviving cells (colonies) after PDT ([4]; irradiated, colonies counted after 11-12 days): reduced the number of surviving cells in a dose dependent manner
